Measurements as given in patent US20160235807A1, “AGONISTS OF GUANYLATE CYCLASE USEFUL FOR DOWNREGULATION OF PRO-INFLAMMATORY CYTOKINES” (SYNERGY PHARMACEUTICALS, INC., priority 2013, published 2016).
Entries after “also recorded” stand apart in the source; their conditions may differ. Bridge positions count the residues as written; N and C are the ends. Peptide text beside a SMILES is read from it.

Tests used:
TNBS-induced colitis [1] = test: TNBS-induced colitis in BALB/c mice; assay type: in vivo, mouse; conditions: plecanatide 0.5 and 2.5 mg/kg oral once daily 7 days; p<0.05; preliminary study
Description: Mouse strains BDF1 and BALB/c were used to examine the efficacy of plecanatide in TNBS induced colitis. The procedures used were as previously described (Hegazi et al., 2005; Dave et al., 2009). Briefly, to induce colitis in specific pathogen-free 2-4 months old female BALB/c mice, 0.5 mg of TNBS in 50% ethanol was slowly administered into the lumen of the colon via a 3.5 F catheter fitted onto a 1-ml syringe (total injection volume 100 μl). Plecanatide formulated in PBS was administered by oral gavage for a total of 7 days, with the first dose given one day prior to TNBS challenge. […]
Disease activity index (DAI) was calculated by scoring in-life parameters starting from day −1 until the end of the study. Once daily, all mice were weighed and assessed for stool consistency, and the presence of overt blood in the stool or around the anus essentially similar to that reported earlier. Colitis severity was assessed by histopathological analyses of H&E stained tissue sections (Hegazi et al., 2005; Dave et al., 2009) employing the following criteria: (score 0) normal appearing crypts; (score 1) abnormal crypt pathology without ulceration; (score 2) depleted crypts with ulceration; (score 3) 20-50% depleted crypts and increased ulceration; (score 4) >50% depleted crypts with substantial ulceration and (score 5) totally ulcerated/inflamed colon with no crypts remaining. […]

GC-C Receptor = target: T1, GC-C Receptor (Homo sapiens, UniProt P25092); test: Cyclic GMP stimulation assay in T84 cells; assay type: cell-based
T1 construct: endogenous in cells; host or cells: T84 human colon carcinoma cells
Description: (§1) The potency of test peptides to stimulate cGMP synthesis in T84 cells was assayed by a published procedure (Shailubhai et al. 2000). Briefly, confluent monolayers of T-84 cells in 24-well plates were washed twice with 250 μl of DMEM containing 50 mM HEPES (pH 7.4), pre-incubated at 37° C. for 10 min with 250 μl of DMEM containing 50 mM HEPES (pH 7.4) and 1 mM isobutylmethylxanthine (IBMX), followed by incubation with test peptide for 30 min. The medium was aspirated, and the reaction was terminated by the addition of 3% perchloric acid. Following centrifugation, and neutralization with 0.1 N NaOH, the resulting supernatant was used directly for measurements of intracellular cGMP using an ELISA kit (Caymen Chemical, Ann Arbor, Mich.). Results are expressed as pmol of cGMP/mg of protein in the cell extracts.

DSS-induced colitis = DSS-induced colitis in BDF-1 mice; assay type: in vivo, mouse
Description: To evaluate the efficacy of plecanatide in DSS induced colitis model, 48 BDF-1 mice were divided into 8 treatment groups (6 mice/group). One group was not exposed to DSS (untreated control) and groups 2-8 were treated with 5% DSS in the drinking water on day 0. Plecanatide or SP-333 solutions formulated in 0.1M phosphate buffer (pH 7) was administered by oral gavage, once a day at 0.005, 0.05, 0.5, 2.5 and 5 mg/kg, from study day −1 (i.e. prior to initiation of DSS treatment) through day 6 for SP-333 or day 7 for plecanatide. DSS treatment was initiated on day 0 for groups 2-8 until the end of the study. Sulfasalazine (80 mg/kg) or 5-ASA (100 mg/kg) was used as positive control and was administered daily. Mice were sacrificed on day 7. The large intestine was removed and weighed. Distal section of the large intestine was collected and fixed as described above.
(§2) Disease activity index (DAI) was calculated by scoring in-life parameters starting from day −1 until the end of the study. Once daily, all mice were weighed and assessed for stool consistency, and the presence of overt blood in the stool or around the anus essentially similar to that reported earlier. Colitis severity was assessed by histopathological analyses of H&E stained tissue sections (Hegazi et al., 2005; Dave et al., 2009) employing the following criteria: (score 0) normal appearing crypts; (score 1) abnormal crypt pathology without ulceration; (score 2) depleted crypts with ulceration; (score 3) 20-50% depleted crypts and increased ulceration; (score 4) >50% depleted crypts with substantial ulceration and (score 5) totally ulcerated/inflamed colon with no crypts remaining. All slides were scored in a blinded manner. Colitis severity in TCRα−/− model was scored as previously described^25. All slides were scored in a blinded manner. Disease activity index (DAI) was calculated by assessing body weight, stool consistency, and the presence of overt blood in stools or around the anus, essentially similar to that reported earlier (Hamamoto et al., 1999).

colitis in TCRα −/− mice = test: Spontaneous colitis in TCRα−/− mice; assay type: in vivo, mouse; conditions: plecanatide 0.5 and 2.5 mg/kg oral daily for 14 days; vs vehicle
Description: TCRα^−/− mice were matched for age and sex in all experiments. 16 week old TCRα−/− mice were treated with plecanatide at 0.5 or 2.5 mg/kg/day or PBS vehicle control by oral gavage for 14 days (6 mice per group). Mice were sacrificed 12 h after the final dose, and GI tissues were collected for experimental analyses. Colitis severity in TCRα^−/− model was scored as described (Berg et al., 1996).
as §2, with “Disease activity index (DAI) was calculated by assessing body weight, stool consistency, and the presence of overt blood in stools or around the anus, essentially similar to that reported earlier (Hamamoto et al., 1999).” left out

[2] = assay type: in vitro ADME
Description: as §1
(§3) Plecanatide and SP-333 were incubated in simulated intestinal fluid (SIF) for 6-24 h. Inactivated SIF was used as a control. Following the treatment, samples were analyzed by HPLC by cGMP production in T84 cells. […] The active metabolite, SP-338 was characterized by MS and MS/MS and identified to be formed via removal of carboxyl terminal leucine possibly due to cleavage by carboxypeptidases.

[3] = assay type: in vitro ADME; remark: listed apart in the source
Description: as §3

colonic explants [4] = test: Explant cultures of colon tissue from TNBS-induced colitis BALB/c mice, cytokine ELISA; assay type: in vivo, mouse; conditions: 24 h, vs vehicle-treated explants
Description: (§4) Colonic tissue fragments (0.5 g dry weight) from the TNBS-induced colitis mice and TCRα^−/− knockout mice were processed as previously described (Hegazi et al., 2005). Tissue fragment supernatants were collected after 24 h for cytokine ELISAs. Murine immunoassay kits (R&D System) were used according to the manufacturer's instructions for IL-12p40, IL-23 and TNF. Linco Cytokine-16 plex Mouse ELISA was performed for MIP-1α, RANTES, IL-10 and IL-17 (Millipore) as per manufacturer's instructions.
(§5) Murine IL-12 p40, IL-1β, TNF, IFN-γ, immunoassay kits (R&D System, MN, USA) were used according to the manufacturer's instructions. Linco Cytokine-16 plex Mouse ELISA was performed for MIP-1α, RANTES, IL-10, TNF and IL-17 (Millipore, Billerica, Mass.) as per manufacturer's instructions.

colonic explants [5] = test: Explant cultures of colon tissue from TCRα−/− mice, cytokine and chemokine ELISA; assay type: in vivo, mouse; conditions: explant culture 24 h, plecanatide treated mice
Description: as §4, §5

colon dysplasia = conditions: oral plecanatide; Chang et al., 2014; Shailubhai et al., 2012; cited from earlier work
TNBS-induced colitis [6] = test: TNBS-induced colitis in BDF-1 mice; assay type: in vivo, mouse
Description: Mouse strains BDF1 and BALB/c were used to examine the efficacy of plecanatide in TNBS induced colitis. The procedures used were as previously described (Hegazi et al., 2005; Dave et al., 2009). Briefly, to induce colitis in specific pathogen-free 2-4 months old female BALB/c mice, 0.5 mg of TNBS in 50% ethanol was slowly administered into the lumen of the colon via a 3.5 F catheter fitted onto a 1-ml syringe (total injection volume 100 μl). Plecanatide formulated in PBS was administered by oral gavage for a total of 7 days, with the first dose given one day prior to TNBS challenge. Mice were observed daily for body weight, food consumption and for signs of any apparent toxicity, rectal bleeding or prolapse. After 7 days of treatment, GI tissue collection, fixation and histopathological scoring were performed essentially as described previously (Sheikh et al., 2011). GI tissues were also collected and immediately processed for explant culture and cytokine expression as described below.
To induce colitis in BDF1 mice, a total of 90, 10-12 week old, H. pylori free male mice were used. Animals were randomized into 9 groups. TNBS was rectally administered as described above in a total injection volume of 100 μl. Oral administration of PBS formulated plecanatide (0.0005-50 mg/kg), animal monitoring and collection of GI tissues was performed as described above. Daily administration of plecanatide was continued through day 6, when the mice were euthanized. […] Distal sections were fixed, stained with H&E, and evaluated for histopathology and visual severity scores (Hegazi et al., 2005; Dave et al., 2009). […]
as §2

T1 sequence (P25092 24-1073): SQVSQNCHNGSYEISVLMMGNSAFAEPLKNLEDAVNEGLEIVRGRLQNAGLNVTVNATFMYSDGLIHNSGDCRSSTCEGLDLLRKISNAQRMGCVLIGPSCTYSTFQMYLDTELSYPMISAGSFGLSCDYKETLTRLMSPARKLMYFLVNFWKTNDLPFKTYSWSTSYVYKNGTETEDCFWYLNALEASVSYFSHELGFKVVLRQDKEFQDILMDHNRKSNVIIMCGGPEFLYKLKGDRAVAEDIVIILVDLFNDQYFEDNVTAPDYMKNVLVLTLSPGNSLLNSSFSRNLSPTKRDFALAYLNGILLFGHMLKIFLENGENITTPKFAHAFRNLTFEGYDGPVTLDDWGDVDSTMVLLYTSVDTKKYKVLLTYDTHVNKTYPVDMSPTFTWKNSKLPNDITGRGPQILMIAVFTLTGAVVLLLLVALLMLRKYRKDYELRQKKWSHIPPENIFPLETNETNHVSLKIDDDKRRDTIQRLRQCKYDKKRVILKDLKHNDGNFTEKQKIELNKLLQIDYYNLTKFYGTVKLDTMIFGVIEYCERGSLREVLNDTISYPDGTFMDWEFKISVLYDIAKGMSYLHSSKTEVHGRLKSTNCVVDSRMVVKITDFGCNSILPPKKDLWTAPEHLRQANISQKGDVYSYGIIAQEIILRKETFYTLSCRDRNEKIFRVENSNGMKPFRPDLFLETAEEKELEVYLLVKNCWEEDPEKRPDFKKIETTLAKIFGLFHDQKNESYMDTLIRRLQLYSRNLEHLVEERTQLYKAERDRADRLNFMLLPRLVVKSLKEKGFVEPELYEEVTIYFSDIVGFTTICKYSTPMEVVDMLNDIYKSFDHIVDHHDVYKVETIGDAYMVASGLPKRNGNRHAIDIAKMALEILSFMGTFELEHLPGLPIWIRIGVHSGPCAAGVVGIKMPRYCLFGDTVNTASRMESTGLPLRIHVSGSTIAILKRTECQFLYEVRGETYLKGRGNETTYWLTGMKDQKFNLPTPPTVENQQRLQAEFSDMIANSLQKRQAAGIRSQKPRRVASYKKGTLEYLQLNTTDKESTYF

Structure (SMILES): CC(C)C[C@H](NC(=O)[C@@H]1CSSC[C@@H]2NC(=O)[C@H](CC(C)C)NC(=O)[C@H](CCC(=O)O)NC(=O)[C@@H](NC(=O)[C@H](CCC(=O)O)NC(=O)[C@H](CC(=O)O)NC(=O)[C@@H](N)CC(N)=O)CSSC[C@H](NC(=O)[C@H](C)NC(=O)[C@H](C(C)C)NC(=O)[C@H](CC(N)=O)NC(=O)[C@H](C(C)C)NC2=O)C(=O)N[C@@H]([C@@H](C)O)C(=O)NCC(=O)N1)C(=O)O [plecanatide, Asn^1-Asp^2-Glu^3-Cys^4-Glu^5-Leu^6-Cys^7-Val^8-Asn^9-Val^10-Ala^11-Cys^12-Thr^13-Gly^14-Cys^15-Leu^16] (H-NDECELCVNVACTGCL-OH; disulfide 4-12, 7-15 (inferred))
- colitis scores (TNBS-induced colitis [1]): significantly lower; also recorded: effectively ameliorated
- potency to stimulate cGMP in T84 cells (GC-C Receptor): dose dependent increase in cGMP; also recorded: comparable to that of SP-333
- DSS induced colitis severity score (DSS-induced colitis; plecanatide 0.005 mg/kg oral gavage once a day, vs untreated controls p=0.02): significantly lower; also recorded: as effective as sulfasalazine (80 mg/kg)
- amelioration of DSS-induced colitis at higher doses (DSS-induced colitis; plecanatide doses higher than 0.005 mg/day (so in the source)): did not produce incremental effect
- colitis severity compared with reference compound sulfasalazine (80 mg/kg) (DSS-induced colitis; plecanatide, DSS model): superior to treatment with reference compound
- colitis scores (colitis in TCRα −/− mice): reduced
- activity retained [2]: ~70%
- biological activity lost [2]: ~35%
- HPLC analysis after digestion with SIF [3]: completely converts plecanatide into a shorter peptide
- time over which intact peptide was stable, HPLC [3]: up to 6 h
- suppression of secretion of IL-12p40 (colonic explants [4]): 37%
- suppression of secretion of IL-23 (colonic explants [4]): 84%
- suppression of secretion of TNF (colonic explants [4]): 67%
- levels of secreted IL-10 (colonic explants [5]): increased
- production of IL-17 (colonic explants [5]): considerably suppressed
- production of MIP-1α (colonic explants [5]): considerably suppressed
- production of RANTES (colonic explants [5]): considerably suppressed
- colon dysplasia (colon dysplasia): considerably reduced
- colitis severity (TNBS-induced colitis [6]; plecanatide 0.05 mg/kg and higher doses oral, vs untreated controls): significantly lower; also recorded: statistically significant reduction
- colitis severity (TNBS-induced colitis [6]; plecanatide doses under 0.005 mg/kg oral): ineffective
- effective dose-range (TNBS-induced colitis [6]; plecanatide oral, TNBS model): 0.05 to 0.5 mg/kg
- colitis severity compared with reference compound sulfasalazine (80 mg/kg) (TNBS-induced colitis [6]; plecanatide, TNBS model): superior to treatment with reference compound
